Measurements from PubChem BioAssay (NCI).
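1) Cells in 96-well plates. 2) Compound, 48 h, 5 concentrations. 3) Linear interpolation between surrounding doses. 4) Unreached endpoint = highest concentration. TGI denotes the concentration required for complete inhibition of growth.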

Legend:
Assay in all cases: growth of human tumour cells (NCI), 48 h
[1] = tested on: HL-60(TB) leukemia
[2] = tested on: EKVX NSCLC
[3] = tested on: K-562 leukemia
[4] = tested on: HOP-92 NSCLC
[5] = tested on: UACC-257 melanoma
[6] = tested on: HOP-62 NSCLC
[7] = tested on: MOLT-4 leukemia
[8] = tested on: ACHN renal
[9] = tested on: LOX IMVI melanoma
[10] = tested on: NCI-H460 lung
[11] = tested on: T-47D breast
[12] = tested on: SK-MEL-28 melanoma
[13] = tested on: TK-10 renal
[14] = tested on: MCF7 breast
[15] = tested on: SW-620 colon
[16] = tested on: A549 NSCLC
[17] = tested on: HCT-15 colon
[18] = tested on: NCI/ADR-RES ovarian
[19] = tested on: SF-268 CNS
[20] = tested on: MALME-3M melanoma

Compound | TGI [1] | TGI [2] | TGI [3] | TGI [4] | TGI [5] | TGI [6] | TGI [7] | TGI [8] | TGI [9] | TGI [10] | TGI [11] | TGI [12] | TGI [13] | TGI [14] | TGI [15] | TGI [16] | TGI [17] | TGI [18] | TGI [19] | TGI [20]
COC(=O)C1=C(C)NC(C)=C(C(=O)OC)C1c1nc2sccn2c1[N+](=O)[O-] | > 100 µM | > 100 µM | > 100 µM | > 100 µM | > 100 µM | > 100 µM | > 100 µM | > 100 µM | > 100 µM | > 100 µM | > 100 µM | > 100 µM | > 100 µM | > 100 µM | > 100 µM | > 100 µM | > 100 µM | > 100 µM | > 100 µM | 
Nc1ccc(C(=O)N2CCC[C@H]2CO)c(N)c1 | > 100 µM | > 100 µM | > 100 µM | > 100 µM | > 100 µM | > 100 µM | > 100 µM | > 100 µM | > 100 µM | > 100 µM | > 100 µM | > 100 µM | > 100 µM | > 100 µM | > 100 µM | > 100 µM | > 100 µM | > 100 µM | > 100 µM | 
C=CCOc1ccc(C2(O)c3ccccc3C3=NCCCN32)cc1 (configuration not stated) | > 100 µM | > 100 µM | > 87.2 µM | > 100 µM | 52.7 µM | > 100 µM | > 100 µM | > 72.2 µM | > 100 µM | > 100 µM | > 74.6 µM | 59.3 µM | > 100 µM | > 100 µM | > 100 µM | > 100 µM | > 100 µM | > 100 µM | > 100 µM | 27.4 µM
COc1ccc2c(c1)CCN1CCc3ccccc3CC21 (configuration not stated) | 68 µM | > 100 µM | > 100 µM | 68.3 µM | > 100 µM | > 100 µM | > 100 µM | > 100 µM | 58.1 µM | > 100 µM | > 100 µM | 98.5 µM | > 100 µM | > 100 µM | > 100 µM | > 100 µM | > 100 µM | > 100 µM | > 100 µM | > 100 µM
O=C(O)/C=c1/c2ccccc2n2nc3ccccc3c12 | 67.1 µM | > 100 µM | > 100 µM |  | 70 µM | > 100 µM | 69.6 µM | 66.1 µM | 78 µM | > 100 µM | > 100 µM | > 100 µM | > 100 µM | > 100 µM | > 100 µM | > 100 µM | > 100 µM | 81 µM | > 100 µM | 96.2 µM
Cn1c2ccccc2c(=NNc2cccc(C(=O)O)c2)c2ccccc21 | 33.5 µM | 28.7 µM | 13.8 µM | 51.2 µM | 58.6 µM | 47.8 µM | 22.7 µM | 35.5 µM | 17.9 µM | 22 µM | 40.9 µM | 35.7 µM | 59.2 µM | 11.7 µM | 35.5 µM | 27.3 µM | 51.4 µM | 67.7 µM | 39 µM | 38.3 µM
